Experiments:
[1] = molecular target: T1, HSL (Rattus norvegicus, UniProt P15304); assay: PNPB assay; format: biochemical; conditions: Example 6, Table 6; n=5, mean±SD
T1 construct: The partially purified HSL can be stored at −70° C. for 4 to 6 weeks; from tissue; host or cells: rat epididymal fat cells (male Wistar rats)
T1 sequence (P15304 1-768 isoform P15304-2): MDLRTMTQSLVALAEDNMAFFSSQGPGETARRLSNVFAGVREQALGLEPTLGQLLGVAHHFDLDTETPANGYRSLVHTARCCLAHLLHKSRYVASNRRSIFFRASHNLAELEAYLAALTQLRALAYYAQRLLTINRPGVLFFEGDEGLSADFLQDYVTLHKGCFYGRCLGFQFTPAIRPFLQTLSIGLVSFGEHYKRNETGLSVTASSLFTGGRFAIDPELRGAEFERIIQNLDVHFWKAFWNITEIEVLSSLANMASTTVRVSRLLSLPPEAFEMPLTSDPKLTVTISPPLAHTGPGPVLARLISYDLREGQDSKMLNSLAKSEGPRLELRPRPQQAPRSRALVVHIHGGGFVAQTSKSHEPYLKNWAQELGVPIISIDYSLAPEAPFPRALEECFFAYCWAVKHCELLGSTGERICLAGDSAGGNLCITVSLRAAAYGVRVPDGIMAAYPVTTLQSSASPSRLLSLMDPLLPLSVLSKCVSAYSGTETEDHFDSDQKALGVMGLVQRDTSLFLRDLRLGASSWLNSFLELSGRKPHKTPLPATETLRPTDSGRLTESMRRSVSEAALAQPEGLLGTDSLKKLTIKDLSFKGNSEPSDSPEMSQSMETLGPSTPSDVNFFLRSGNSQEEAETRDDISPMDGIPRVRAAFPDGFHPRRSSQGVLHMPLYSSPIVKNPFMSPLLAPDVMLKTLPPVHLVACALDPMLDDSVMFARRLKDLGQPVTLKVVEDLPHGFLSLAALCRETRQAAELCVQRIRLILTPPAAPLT
Procedure: Isolated rat fat cells are obtained from epididymal fatty tissue from untreated male rats (Wistar, 220-250 g) by collagenase treatment according to published processes. The fat cells from 10 rats are washed three times by flotation with 50 ml each of homogenization buffer ([…], pH 7.4, 0.25 M sucrose, 1 mM ethylenediamine-N,N,N′,N′-tetraacetic acid (EDTA), 1 mM dithiothreitol (DTT), 10 μg/ml of leupeptin, 10 μg/ml of antipain, 20 μg/ml of pepstatin) and finally taken up in 10 ml of homogenization buffer. The fat cells are homogenized in a Teflon-in-glass homogenizer (Braun-Melsungen) by 10 strokes at 1500 rpm and 15° C. The homogenizate is centrifuged (Sorvall SM24 tubes, 5000 rpm, 10 min, 4° C.). […]
10 μl of p-nitrophenyl butyrate (PNPB)(2 mM in acetonitrile), 890 μl of 0.1 M KPi (pH 7.25), 0.9% NaCl, 1 mM DTT, and 100 μl of HSL (prepared as above, diluted in this buffer) are incubated at 37° C. for 10 min. […] An equivalent volume of the upper phase is then taken and the absorption is determined at 400 nm.
Substances are customarily tested in four independent batches. The inhibition of the enzymatic activity of the HSL by a test substance is determined by comparison with an uninhibited control reaction. The IC50 value is calculated by means of an inhibition curve using at least 10 concentrations of the test substance. […]

[2] = molecular target: T2, LPL from rat adipocytes (Rattus norvegicus, UniProt Q06000); assay: Cleavage of NAG by LPL; format: biochemical; conditions: for Increase in the absorption at 481 nm: 60 min, NAG 0.05 mg/ml
T2 construct: 75 μg of partially purified LPL from rat adipocytes; from tissue; host or cells: rat adipocytes
T2 sequence (Q06000 28-474): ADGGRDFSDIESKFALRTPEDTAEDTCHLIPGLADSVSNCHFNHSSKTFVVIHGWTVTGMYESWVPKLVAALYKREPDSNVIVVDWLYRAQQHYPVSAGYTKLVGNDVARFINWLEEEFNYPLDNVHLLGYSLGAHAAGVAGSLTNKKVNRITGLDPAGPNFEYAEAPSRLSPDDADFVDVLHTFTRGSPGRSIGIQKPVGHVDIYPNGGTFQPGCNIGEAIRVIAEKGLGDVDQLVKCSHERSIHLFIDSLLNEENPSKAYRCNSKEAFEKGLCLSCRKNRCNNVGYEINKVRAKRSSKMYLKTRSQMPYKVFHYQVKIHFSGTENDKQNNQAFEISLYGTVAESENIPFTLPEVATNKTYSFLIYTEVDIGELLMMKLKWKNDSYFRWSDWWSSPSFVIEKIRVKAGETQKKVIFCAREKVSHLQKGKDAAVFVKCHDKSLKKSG

| Structure (SMILES) | IC50 [1] | Activity relative to HSL ([2]; conditions optimized for HSL) | Increase in the absorption at 481 nm ([2]; enzyme 10 arb. units) | Increase in the absorption at 481 nm ([2]; enzyme 20 arb. units) | Increase in the absorption at 481 nm ([2]; enzyme 50 arb. units) | Increase in the absorption at 481 nm ([2]; enzyme 75 arb. units) | Increase in the absorption at 481 nm ([2]; enzyme 100 arb. units) | Increase in the absorption at 481 nm ([2]; enzyme 150 arb. units) | Increase in the absorption at 481 nm ([2]; enzyme 200 arb. units) | Increase in the absorption at 481 nm ([2]; enzyme 250 arb. units) | Increase in the absorption at 481 nm ([2]; enzyme 300 arb. units) | Increase in the absorption at 481 nm ([2]; enzyme 400 arb. units) |
| --- | --- | --- | --- | --- | --- | --- | --- | --- | --- | --- | --- | --- |
| O=C(CCCCCCCCCCCNc1ccc([N+](=O)[O-])c2nonc12)OCC(O)CO (racemic) [Compound 3] | > 100 µM |  |  |  |  |  |  |  |  |  |  |  |
| O=C(CCCCCCCCCCCNc1ccc([N+](=O)[O-])c2nonc12)OCC(O)CO (stereo not drawn) [Compound (3)] |  | ~70% | 105 ± 14 arb. units | 187 ± 17 arb. units | 489 ± 31 arb. units | 773 ± 56 arb. units | 948 ± 72 arb. units | 1487 ± 132 arb. units | 1952 ± 173 arb. units | 2638 ± 213 arb. units | 2945 ± 250 arb. units | 3512 ± 288 arb. units |

— patent US6783949B1, “Processes for determining whether a test substance contains lipases or lipase inhibitors” (Aventis Pharma Deutschland GmbH, priority 1999, dated 2004)
